Assay results published in patent US7064144B2, “Imidazole derivatives as adenosine deaminase inhibitors” (Astellas Pharma Inc., priority 2001, dated 2006).

system: not given; experiment: not given; conditions: not given

Row | melting point | SMILES
1 | > 168 °C (dec.) | C[C@H](O)[C@H](CSc1cccc2ccccc12)n1cnc(C(N)=O)c1.Cl
2 | 191 to 193 °C | C[C@H](O)[C@@H](CCOc1ccc(-c2ccccc2)cc1)n1cnc(C(N)=O)c1 [Example 28, 1-[(2S,3R)-5-(1,1′-biphenyl-4-yloxy)-2-hydroxy-3-pentyl]imidazole-4-carboxamide]
3 | 211 to 213.5 °C | C[C@H](O)[C@@H](CCOc1ccc2c(ccn2C)c1)n1cnc(C(N)=O)c1 [Example 75, 1-[(2S,3R)-2-hydroxy-5-(1-methyl-1H-indol-5-yloxy)-3-pentyl]imidazole-4-carboxamide]
4 | 115 to 121 °C | C[C@H](O)[C@@H](COc1ccc(Cl)c(Cl)c1)n1cnc(C(N)=O)c1 [Example 81, 1-{(1R,2S)-1-[(3,4-dichlorophenoxy)methyl]-2-hydroxypropyl}-1H-imidazole-4-carboxamide]
5 | 166 to 168 °C | C[C@H](O)[C@@H](CCOc1cccc(-c2ccc(Cl)nc2)c1)n1cnc(C(N)=O)c1 [Example 87, 1-{(2S,3R)-5-[3-(6-chloro-3-pyridyl)phenoxy]-2-hydroxy-3-pentyl}imidazole-4-carboxamide]
6 | 139 to 141 °C | C[C@H](O)[C@@H](CCOc1ccc2ccc(Cl)cc2c1)n1cnc(C(N)=O)c1 [Example 97, 1-[(2S,3R)-5-(7-chloro-2-naphthyloxy)-2-hydroxy-3-pentyl]imidazole-4-carboxamide]
7 | > 108 °C (dec.) | C[C@H](O)[C@H](CSc1ccc2ccccc2c1)n1cnc(C(N)=O)c1 [Example 102, 1-{(1R,2S)-2-hydroxy-1-[(2-naphthylthio)methyl]propyl}-1H-imidazole-4-carboxamide]
8 | > 120 °C (dec.) | C[C@H](O)[C@H](CSc1cccc(Cl)c1Cl)n1cnc(C(N)=O)c1 [Example 104, 1-{(1R,2S)-1-{[(2,3-dichlorophenyl)thio]methyl}-2-hydroxypropyl}-1H-imidazole-4-carboxamide]

target: T1, Human ADA (Homo sapiens, UniProt P00813); experiment: Adenosine Deaminase (ADA) Enzyme Assay; format: biochemical; conditions: 50% inhibition of Vmax vs vehicle; 0.16 μg/ml ADA, 0.1 mM adenosine, 10 mM phosphate buffer saline pH 7.4, room temperature, A265
T1 construct: made in house
T1 sequence (P00813 1-363): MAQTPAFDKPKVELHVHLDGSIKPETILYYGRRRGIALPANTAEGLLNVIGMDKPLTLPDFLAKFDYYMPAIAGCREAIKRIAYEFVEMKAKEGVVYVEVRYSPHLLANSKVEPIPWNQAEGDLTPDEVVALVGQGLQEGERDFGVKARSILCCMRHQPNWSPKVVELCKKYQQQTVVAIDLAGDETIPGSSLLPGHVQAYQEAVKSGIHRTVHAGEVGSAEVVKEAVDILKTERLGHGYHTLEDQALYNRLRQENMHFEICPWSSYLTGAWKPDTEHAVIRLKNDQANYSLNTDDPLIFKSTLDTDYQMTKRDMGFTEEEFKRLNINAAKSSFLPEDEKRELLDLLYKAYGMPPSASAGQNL
Excerpt: Adenosine Deaminase (ADA) Enzyme Assay
• 1-[(2S,3R)-5-(1,1′-biphenyl-3-yloxy)-2-hydroxy-3-pentyl]imidazole-4-carboxamide (Example 20) • 1-{(2S,3R)-2-hydroxy-5-[3-(2-thienyl)phenoxy]-3-pentyl}imidazole-4-carboxamide (Example 32) • 1-[(2S,3R)-2-hydroxy-5-(2-quinolyloxy)-3-pentyl]imidazole-4-carboxamide (Example 49) • 1-[(2S,3R)-2-hydroxy-5-(2-naphthylthio)-3-pentyl]imidazole-4-carboxamide (Example 76) • 1-[(2S,3R)-2-hydroxy-5-(2-quinolylthio)-3-pentyl]imidazole-4-carboxamide (Example 78) Test Method:
The reaction velocity (V) is measured by a change in absorbance at 265 nm (A265) resulting from the deamination of adenosine. Human ADA was expressed and purified from ADA-deficient bacterial strain. Reaction mixtures of a total volume of 200 μl contained 0.16 μg/ml of ADA and 0.1 mM of adenosine and test compound in 10 mM phosphate buffer saline (pH 7.4). The reaction was started by addition of ADA to a mixture of adenosine and test compound. The reaction was followed at room temperature by recording decrease in A265 for 3 minutes in SPECTRAmax 250 (Molecular Devices, USA) to automatically calculate Vmax. Inhibitory potency of test compound was expressed as IC50 value, the drug concentration required to produce 50% inhibition of Vmax in comparison to vehicle treatment.

Row | IC50 [µM] | SMILES
9 | < 0.02 | C[C@H](O)[C@@H](CCOc1cccc(-c2ccccc2)c1)n1cnc(C(N)=O)c1 [Example 20, 1-[(2S,3R)-5-(1,1′-biphenyl-3-yloxy)-2-hydroxy-3-pentyl]imidazole-4-carboxamide]
10 | < 0.02 | C[C@H](O)[C@@H](CCOc1cccc(-c2cccs2)c1)n1cnc(C(N)=O)c1 [Example 32, 1-{(2S,3R)-2-hydroxy-5-[3-(2-thienyl)phenoxy]-3-pentyl}imidazole-4-carboxamide]
11 | < 0.02 | C[C@H](O)[C@@H](CCOc1ccc2ccccc2n1)n1cnc(C(N)=O)c1 [Example 49, 1-[(2S,3R)-2-hydroxy-5-(2-quinolyloxy)-3-pentyl]imidazole-4-carboxamide]
12 | < 0.02 | C[C@H](O)[C@@H](CCSc1ccc2ccccc2c1)n1cnc(C(N)=O)c1 [Example 76, 1-[(2S,3R)-2-hydroxy-5-(2-naphthylthio)-3-pentyl]imidazole-4-carboxamide]
13 | < 0.02 | C[C@H](O)[C@@H](CCSc1ccc2ccccc2n1)n1cnc(C(N)=O)c1 [Example 78, 1-[(2S,3R)-2-hydroxy-5-(2-quinolylthio)-3-pentyl]imidazole-4-carboxamide]
